Results from patent US20080009418A1, “Selective Inhibitors” (Alchemia LTD., priority 2004, published 2008).

Columns and labels:
[1] = target: T1, Human neuropeptide Y (NPY-Y1) (Homo sapiens, UniProt P25929); assay: Radioligand binding, human neuropeptide Y NPY-Y1 membranes, FlashPlate, [125I]-PYY; details: compound at 10 μM, [125I]-PYY
T1 construct: purchased Perkin Elmer Biosignal
T1 sequence (P25929 1-384): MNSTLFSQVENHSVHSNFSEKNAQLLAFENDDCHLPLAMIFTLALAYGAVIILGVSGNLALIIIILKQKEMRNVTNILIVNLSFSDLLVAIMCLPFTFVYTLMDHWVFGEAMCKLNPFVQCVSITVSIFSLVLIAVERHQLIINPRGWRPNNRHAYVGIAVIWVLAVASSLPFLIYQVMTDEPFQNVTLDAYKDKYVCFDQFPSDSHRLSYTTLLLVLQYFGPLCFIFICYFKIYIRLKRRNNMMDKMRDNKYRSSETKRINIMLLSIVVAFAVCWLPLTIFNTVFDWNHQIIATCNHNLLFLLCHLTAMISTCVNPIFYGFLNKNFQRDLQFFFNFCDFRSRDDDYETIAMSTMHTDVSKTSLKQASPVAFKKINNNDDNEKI
Procedure, shortened: (§1)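 Cloned human receptor membranes were coated onto FlashPlate wells and incubated with radioligand and compound (added from a 0.5 mM DMSO daughter plate) for 1 hour at room temperature in the dark. Scintillation counting gave percent inhibition, with DMSO defining total and reference ligand defining non-specific binding.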

[2] = target: T2, Mouse urotensin (mUR2) (Mus musculus, UniProt Q8VIH9); assay: Radioligand binding, mouse urotensin mUR2 membranes, FlashPlate, [125I]-Urotensin II; details: compound at 10 μM, [125I]-Urotensin II
T2 construct: purchased Perkin Elmer Biosignal
T2 sequence (Q8VIH9 1-385): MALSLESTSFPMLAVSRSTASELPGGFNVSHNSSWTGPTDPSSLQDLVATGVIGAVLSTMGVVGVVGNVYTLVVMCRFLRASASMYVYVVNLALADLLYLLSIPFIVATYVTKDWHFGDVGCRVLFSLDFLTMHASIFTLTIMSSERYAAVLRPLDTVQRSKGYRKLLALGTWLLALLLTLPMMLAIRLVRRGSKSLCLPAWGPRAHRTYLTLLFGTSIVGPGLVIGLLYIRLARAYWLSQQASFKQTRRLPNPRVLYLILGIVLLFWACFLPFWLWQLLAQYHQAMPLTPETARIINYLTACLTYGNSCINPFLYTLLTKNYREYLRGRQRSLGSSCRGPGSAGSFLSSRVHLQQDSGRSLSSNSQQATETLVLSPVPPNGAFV
Procedure, shortened: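 Cloned mouse urotensin (mUR2) receptor membranes from Perkin Elmer Biosignal were immobilized in FlashPlate microplates using a proprietary coating. Each well got 19.5 μl buffer, then 0.5 μl of DMSO, reference ligand, or compound. Adding 5 μl of [125I]-Urotensin II, diluted to 5× final concentration in binding buffer, started binding. Plates were sealed with TopSeal-A and incubated 1 hour at room temperature in the dark. Wells were counted for 30 seconds each on a TopCount after a 60-second delay, and percentage inhibition was calculated.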

[3] = target: T3, Human neurokinin (NK1) (Homo sapiens, UniProt P25103); assay: Radioligand binding, human neurokinin NK1 membranes, filtration, [125I]-Substance P; details: compound at 10 μM, [125I]-Substance P
T3 construct: purchased Perkin Elmer Biosignal
T3 sequence (P25103 whole entry): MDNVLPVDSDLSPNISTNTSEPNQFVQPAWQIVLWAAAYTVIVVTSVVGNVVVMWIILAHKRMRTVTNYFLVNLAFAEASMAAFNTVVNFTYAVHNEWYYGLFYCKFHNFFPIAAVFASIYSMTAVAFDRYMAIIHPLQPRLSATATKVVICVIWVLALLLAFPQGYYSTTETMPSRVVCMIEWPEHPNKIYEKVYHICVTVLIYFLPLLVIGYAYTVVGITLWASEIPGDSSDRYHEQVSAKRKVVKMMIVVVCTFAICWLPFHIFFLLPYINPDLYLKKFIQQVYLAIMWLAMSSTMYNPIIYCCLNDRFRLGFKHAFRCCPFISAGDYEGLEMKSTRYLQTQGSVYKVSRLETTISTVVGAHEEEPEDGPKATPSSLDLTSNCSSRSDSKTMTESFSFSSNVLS
Procedure, shortened: (§2)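 Membranes from cloned human receptors were incubated with compound and radioligand for 1 hour at room temperature. Bound ligand was collected on 0.3% PEI-soaked filters, washed with cold 50 mM Tris-HCl pH 7.4, and counted by scintillation. Percent inhibition was computed against DMSO totals and reference-ligand nonspecific wells.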

[4] = target: T4, Human μ-opioid (MOP) (Homo sapiens, UniProt P35372); assay: Radioligand binding, human μ-opioid (MOP) membranes, FlashPlate, [3H]-Naloxone; details: compound at 10 μM, [3H]-Naloxone
T4 construct: purchased Perkin Elmer Biosignal
T4 sequence (P35372 whole entry): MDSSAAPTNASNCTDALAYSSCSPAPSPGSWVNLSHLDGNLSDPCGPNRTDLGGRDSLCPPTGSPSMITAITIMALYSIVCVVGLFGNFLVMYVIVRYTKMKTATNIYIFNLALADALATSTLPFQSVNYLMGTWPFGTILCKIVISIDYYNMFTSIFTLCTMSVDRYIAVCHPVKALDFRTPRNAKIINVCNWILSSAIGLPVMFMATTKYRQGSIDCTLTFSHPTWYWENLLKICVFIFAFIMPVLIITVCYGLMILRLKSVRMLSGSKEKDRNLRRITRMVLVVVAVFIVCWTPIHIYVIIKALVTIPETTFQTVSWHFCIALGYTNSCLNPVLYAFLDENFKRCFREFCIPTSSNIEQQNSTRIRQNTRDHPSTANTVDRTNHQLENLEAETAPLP
Procedure, shortened: as §1

[5] = target: T5, Human δ-opioid (DOP) (Homo sapiens, UniProt P41143); assay: Radioligand binding, human δ-opioid (DOP) membranes, FlashPlate, [3H]-Bremazocine; details: compound at 10 μM, [3H]-Bremazocine
T5 construct: purchased Perkin Elmer Biosignal
T5 sequence (P41143 whole entry): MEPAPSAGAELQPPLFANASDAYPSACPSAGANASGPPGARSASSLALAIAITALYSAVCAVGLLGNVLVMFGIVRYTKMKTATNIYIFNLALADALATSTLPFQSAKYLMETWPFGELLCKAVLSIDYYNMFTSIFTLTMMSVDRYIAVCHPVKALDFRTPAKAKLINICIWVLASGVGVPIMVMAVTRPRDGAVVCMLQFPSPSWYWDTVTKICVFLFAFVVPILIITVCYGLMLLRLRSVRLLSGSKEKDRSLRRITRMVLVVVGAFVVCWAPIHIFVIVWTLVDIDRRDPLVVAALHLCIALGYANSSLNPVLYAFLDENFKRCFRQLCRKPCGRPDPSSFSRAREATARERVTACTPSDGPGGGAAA
Procedure, shortened: as §1

[6] = target: T6, Human Melanocortin (MC4) (Homo sapiens, UniProt P32245); assay: Radioligand binding, human melanocortin MC4 membranes, FlashPlate, [125I]-NDP-αMSH; details: compound at 10 μM, [125I]-NDP-αMSH
T6 construct: purchased Perkin Elmer Biosignal
T6 sequence (P32245 whole entry): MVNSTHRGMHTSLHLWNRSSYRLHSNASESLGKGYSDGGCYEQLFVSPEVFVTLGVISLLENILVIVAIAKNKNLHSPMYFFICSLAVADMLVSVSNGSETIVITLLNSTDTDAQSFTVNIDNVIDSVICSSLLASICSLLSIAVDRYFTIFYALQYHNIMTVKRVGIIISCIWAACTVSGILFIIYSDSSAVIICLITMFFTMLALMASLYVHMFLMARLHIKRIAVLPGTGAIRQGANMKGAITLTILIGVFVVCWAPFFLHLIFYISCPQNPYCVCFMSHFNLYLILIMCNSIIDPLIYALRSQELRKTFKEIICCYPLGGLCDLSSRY
Procedure, shortened: as §1

[7] = target: T7, Human Melanocortin (MC3) (Homo sapiens, UniProt P41968); assay: Radioligand binding, human melanocortin MC3 membranes, FlashPlate, [125I]-NDP-αMSH; details: compound at 10 μM, [125I]-NDP-αMSH
T7 construct: purchased Perkin Elmer Biosignal
T7 sequence (P41968 whole entry): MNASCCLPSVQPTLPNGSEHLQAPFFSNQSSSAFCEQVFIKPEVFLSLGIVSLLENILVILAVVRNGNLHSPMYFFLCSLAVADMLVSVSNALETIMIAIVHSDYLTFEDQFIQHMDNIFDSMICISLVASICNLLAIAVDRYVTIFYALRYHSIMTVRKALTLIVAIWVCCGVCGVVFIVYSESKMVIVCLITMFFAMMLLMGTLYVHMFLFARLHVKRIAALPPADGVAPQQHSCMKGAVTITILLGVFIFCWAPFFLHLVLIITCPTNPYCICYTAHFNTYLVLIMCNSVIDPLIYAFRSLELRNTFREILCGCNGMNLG
Procedure, shortened: as §1

[8] = target: T8, Human opioid (ORL1) (Homo sapiens, UniProt P41146); assay: Radioligand binding, human opioid ORL1 membranes, FlashPlate, [125I]-Nociceptin; details: compound at 10 μM, [125I]-Nociceptin
T8 construct: purchased Perkin Elmer Biosignal
T8 sequence (P41146 whole entry): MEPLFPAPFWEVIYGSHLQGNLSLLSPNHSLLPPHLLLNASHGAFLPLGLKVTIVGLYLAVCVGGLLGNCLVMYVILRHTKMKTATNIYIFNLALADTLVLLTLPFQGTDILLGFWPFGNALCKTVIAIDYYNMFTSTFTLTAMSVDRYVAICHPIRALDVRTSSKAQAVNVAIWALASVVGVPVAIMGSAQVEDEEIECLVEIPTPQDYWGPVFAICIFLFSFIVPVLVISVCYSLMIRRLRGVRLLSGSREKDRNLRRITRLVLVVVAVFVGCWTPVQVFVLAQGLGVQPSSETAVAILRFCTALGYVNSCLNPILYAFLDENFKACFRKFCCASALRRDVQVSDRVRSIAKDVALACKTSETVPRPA
Procedure, shortened: as §1

[9] = target: T9, Human κ-Opioid (KOP) (Homo sapiens, UniProt P41145); assay: Radioligand binding, human κ-opioid (KOP) membranes, filtration, [3H]-Diprenorphine; details: compound at 10 μM, [3H]-Diprenorphine
T9 construct: purchased Perkin Elmer Biosignal
T9 sequence (P41145 whole entry): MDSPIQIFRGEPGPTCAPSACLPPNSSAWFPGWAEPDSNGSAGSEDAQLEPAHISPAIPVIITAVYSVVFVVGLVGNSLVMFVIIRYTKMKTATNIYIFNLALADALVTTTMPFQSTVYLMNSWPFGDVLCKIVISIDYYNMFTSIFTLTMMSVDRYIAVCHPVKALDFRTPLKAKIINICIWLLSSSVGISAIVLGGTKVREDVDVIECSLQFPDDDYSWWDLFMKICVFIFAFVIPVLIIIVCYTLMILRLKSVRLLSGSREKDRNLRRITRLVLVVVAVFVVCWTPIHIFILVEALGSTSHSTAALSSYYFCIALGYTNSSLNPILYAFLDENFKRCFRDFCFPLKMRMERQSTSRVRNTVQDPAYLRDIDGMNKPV
Procedure, shortened: as §2

[10] = target: T10, Human melanin-concentrating hormone (MCH1) (Homo sapiens, UniProt Q99705); assay: Radioligand binding, human melanin-concentrating hormone MCH1 membranes, FlashPlate, [125I]-S36057; details: compound at 10 μM
T10 construct: purchased Perkin Elmer Biosignal
T10 sequence (Q99705 whole entry): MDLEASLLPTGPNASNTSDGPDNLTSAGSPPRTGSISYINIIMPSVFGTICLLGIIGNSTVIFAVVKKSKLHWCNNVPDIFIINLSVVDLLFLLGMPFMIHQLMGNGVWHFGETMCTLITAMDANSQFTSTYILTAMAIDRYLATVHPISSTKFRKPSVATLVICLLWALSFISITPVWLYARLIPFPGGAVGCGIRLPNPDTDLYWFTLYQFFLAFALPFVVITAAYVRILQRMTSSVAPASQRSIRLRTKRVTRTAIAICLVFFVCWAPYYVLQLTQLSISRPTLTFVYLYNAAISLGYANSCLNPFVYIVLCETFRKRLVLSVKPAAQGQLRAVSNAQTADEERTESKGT
Procedure, shortened: as §1

[11] = target: T11, Human melanocortin (MC5) (Homo sapiens, UniProt P33032); assay: Radioligand binding, human melanocortin MC5 membranes, FlashPlate, [125I]-NDP-αMSH; details: compound at 10 μM, [125I]-NDP-αMSH
T11 construct: purchased Perkin Elmer Biosignal
T11 sequence (P33032 whole entry): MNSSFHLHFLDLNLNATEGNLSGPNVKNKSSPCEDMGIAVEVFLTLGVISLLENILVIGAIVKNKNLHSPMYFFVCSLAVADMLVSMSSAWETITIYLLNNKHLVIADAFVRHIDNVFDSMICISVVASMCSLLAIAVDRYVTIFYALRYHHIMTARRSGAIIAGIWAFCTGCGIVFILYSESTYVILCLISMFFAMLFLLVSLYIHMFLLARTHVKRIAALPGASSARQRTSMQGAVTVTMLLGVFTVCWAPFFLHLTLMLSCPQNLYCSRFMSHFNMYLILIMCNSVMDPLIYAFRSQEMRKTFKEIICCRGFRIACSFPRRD
Procedure, shortened: as §1

## COC[C@H]1OC(OCc2cccc(O)c2)[C@H](NC(=O)CCNC(=N)N)[C@@H](OCc2ccc(-c3ccccc3)cc2)[C@@H]1O (stereo partly shown) [compound 142]
[1]
  A9 radioligand binding, percentage inhibition: − (“−” indicates less than 50% inhibition at 10 μM)
[2]
  A11 radioligand binding, percentage inhibition: − (“−” indicates less than 50% inhibition at 10 μM)
[3]
  A8 radioligand binding, percentage inhibition: − (“−” indicates less than 50% inhibition at 10 μM)
[4]
  A7 radioligand binding, percentage inhibition: − (“−” indicates less than 50% inhibition at 10 μM)
[5]
  A1 radioligand binding, percentage inhibition: − (“−” indicates less than 50% inhibition at 10 μM)
[6]
  A4 radioligand binding, percentage inhibition: − (“−” indicates less than 50% inhibition at 10 μM)
[7]
  A3 radioligand binding, percentage inhibition: − (“−” indicates less than 50% inhibition at 10 μM)
[8]
  A10 radioligand binding, percentage inhibition: − (“−” indicates less than 50% inhibition at 10 μM)
[9]
  A2 radioligand binding, percentage inhibition: − (“−” indicates less than 50% inhibition at 10 μM)
[10]; [125I]-S36057
  A6 radioligand binding, percentage inhibition: + (“+” indicates greater than 50% inhibition at 10 μM)
[11]
  A5 radioligand binding, percentage inhibition: − (“−” indicates less than 50% inhibition at 10 μM)

## COCC1OC(OCc2ccccc2)C(NC(=O)CCCNC(=N)N)C(OCc2ccc3ccccc3c2)C1O (stereo not shown) [compound 193]
[1]; FlashPlate
  A9: inhibition of radioligand binding: − (“−” indicates less than 50% inhibition at 10 μM)
[2]; FlashPlate
  A11: inhibition of radioligand binding: − (“−” indicates less than 50% inhibition at 10 μM)
[3]; filtration
  A8: inhibition of radioligand binding: + (“+” indicates greater than 50% inhibition at 10 μM)
[4]; FlashPlate
  A7: inhibition of radioligand binding: − (“−” indicates less than 50% inhibition at 10 μM)
[5]; FlashPlate
  A1: inhibition of radioligand binding: − (“−” indicates less than 50% inhibition at 10 μM)
[6]; FlashPlate
  A4: inhibition of radioligand binding: + (“+” indicates greater than 50% inhibition at 10 μM)
[7]; FlashPlate
  A3: inhibition of radioligand binding: + (“+” indicates greater than 50% inhibition at 10 μM)
[8]; FlashPlate
  A10: inhibition of radioligand binding: − (“−” indicates less than 50% inhibition at 10 μM)
[9]; filtration
  A2: inhibition of radioligand binding: − (“−” indicates less than 50% inhibition at 10 μM)
[10]; [125I]-S36057, FlashPlate
  A6: inhibition of radioligand binding: + (“+” indicates greater than 50% inhibition at 10 μM)
[11]; FlashPlate
  A5: inhibition of radioligand binding: + (“+” indicates greater than 50% inhibition at 10 μM)

## NCCCC(=O)NC1C(OCc2ccc3ccccc3c2)OC(COCc2ccc(Cl)cc2)C(O)C1OCc1ccc(Cl)cc1 (stereo not shown) [compound 392]
[1]; human NPY-Y1 membranes
  A9: inhibition of radioligand binding: − (“−” indicates less than 50% inhibition at 10 μM)
[2]; mouse mUR2 membranes
  A11: inhibition of radioligand binding: − (“−” indicates less than 50% inhibition at 10 μM)
[3]; human NK1 membranes
  A8: inhibition of radioligand binding: + (“+” indicates greater than 50% inhibition at 10 μM)
[4]; human MOP membranes, 10 µM
  A7: inhibition of radioligand binding: − (“−” indicates less than 50% inhibition at 10 μM)
[5]; human DOP membranes
  A1: inhibition of radioligand binding: − (“−” indicates less than 50% inhibition at 10 μM)
[6]; human MC4 membranes
  A4: inhibition of radioligand binding: + (“+” indicates greater than 50% inhibition at 10 μM)
[7]; human MC3 membranes
  A3: inhibition of radioligand binding: + (“+” indicates greater than 50% inhibition at 10 μM)
[8]; human ORL1 membranes, 10 µM
  A10: inhibition of radioligand binding: − (“−” indicates less than 50% inhibition at 10 μM)
[9]; human KOP membranes
  A2: inhibition of radioligand binding: − (“−” indicates less than 50% inhibition at 10 μM)
[10]; [125I]-S36057, human MCH1 membranes, 10 µM
  A6: inhibition of radioligand binding: − (“−” indicates less than 50% inhibition at 10 μM)
[11]; human MC5 membranes
  A5: inhibition of radioligand binding: + (“+” indicates greater than 50% inhibition at 10 μM)

## NCCC(=O)NC1C(OCc2ccc(Cl)cc2)OC(COCc2ccc(Cl)cc2)C(O)C1OCc1ccc(Cl)cc1 (single isomer, unassigned) [compound 476]
[1]
  A9: inhibition of radioligand binding, human neuropeptide Y (NPY-Y1): − (“−” indicates less than 50% inhibition at 10 μM)
[2]
  A11: inhibition of radioligand binding, mouse urotensin (mUR2): − (“−” indicates less than 50% inhibition at 10 μM)
[3]
  A8: inhibition of radioligand binding, human neurokinin (NK1): + (“+” indicates greater than 50% inhibition at 10 μM)
[4]
  A7: inhibition of radioligand binding, human μ-opioid (MOP): + (“+” indicates greater than 50% inhibition at 10 μM)
[5]
  A1: inhibition of radioligand binding, human δ-opioid (DOP): − (“−” indicates less than 50% inhibition at 10 μM)
[6]
  A4: inhibition of radioligand binding, human melanocortin (MC4): + (“+” indicates greater than 50% inhibition at 10 μM)
[7]
  A3: inhibition of radioligand binding, human melanocortin (MC3): + (“+” indicates greater than 50% inhibition at 10 μM)
[8]
  A10: inhibition of radioligand binding, human opioid (ORL1): + (“+” indicates greater than 50% inhibition at 10 μM)
[9]
  A2: inhibition of radioligand binding, human κ-opioid (KOP): − (“−” indicates less than 50% inhibition at 10 μM)
[10]; [125I]-S36057
  A6: inhibition of radioligand binding, human melanin-concentrating hormone (MCH1): + (“+” indicates greater than 50% inhibition at 10 μM)
[11]
  A5: inhibition of radioligand binding, human melanocortin (MC5): + (“+” indicates greater than 50% inhibition at 10 μM)

## CSC1O[C@H](COCc2ccc3ccccc3c2)[C@@H](O)[C@@H](OCc2ccc(Cl)cc2)[C@H]1NC(=O)CCNC(=N)N (stereo partly shown) [compound 283]
[1]; FlashPlate
  A9: inhibition of radioligand binding: − (“−” indicates less than 50% inhibition at 10 μM)
[2]; FlashPlate
  A11: inhibition of radioligand binding: − (“−” indicates less than 50% inhibition at 10 μM)
[3]; filtration
  A8: inhibition of radioligand binding: + (“+” indicates greater than 50% inhibition at 10 μM)
[4]; FlashPlate
  A7: inhibition of radioligand binding: − (“−” indicates less than 50% inhibition at 10 μM)
[5]; FlashPlate
  A1: inhibition of radioligand binding: − (“−” indicates less than 50% inhibition at 10 μM)
[6]; FlashPlate
  A4: inhibition of radioligand binding: + (“+” indicates greater than 50% inhibition at 10 μM)
[7]; FlashPlate
  A3: inhibition of radioligand binding: − (“−” indicates less than 50% inhibition at 10 μM)
[8]; FlashPlate
  A10: inhibition of radioligand binding: − (“−” indicates less than 50% inhibition at 10 μM)
[9]; filtration
  A2: inhibition of radioligand binding: − (“−” indicates less than 50% inhibition at 10 μM)
[10]; [125I]-S36057, FlashPlate
  A6: inhibition of radioligand binding: − (“−” indicates less than 50% inhibition at 10 μM)
[11]; FlashPlate
  A5: inhibition of radioligand binding: + (“+” indicates greater than 50% inhibition at 10 μM)
